We go through 63 compounds from PubChem BioAssay AID602236 (The Scripps Research Institute Molecular Screening Center, 2012).

Active and inactive are the calls of the source.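 The calls were made as follows: active = IC50 of 10 µM or lower; inactive = IC50 above 10 µM.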

One may read the IC50 as the concentration that inhibits the measured activity by half.

This assay concerns HEK-293 Gal4-VP16 UAS luciferase reporter, luminescence. Briefly: GAL4-VP16 reporter repression curves – cell-based, luminescence, high throughput, SRC1 series, counter-screen for SRC1 inhibitor project, dose response (AID 602236).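 Also: inhibitor potency where hits lower luciferase light from Gal4-VP16 transactivation.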 Background: A counterscreen serves to expose hits that act by an unwanted route or on another target.
Regarding `COc1ccc(-n2cnc3c(sc4nccc(N(C)C)c43)c2=O)cc1`, the IC50 is 14.2 µM (inactive).
Turning to `CCCCCOc1ccc(/C=C/c2c([N+](=O)[O-])c(=O)n(C)c(=O)n2C)cc1`, the IC50 is 10.1 µM (inactive).
For `O=C(Nc1nc(-c2ccccn2)cs1)c1cccc(-n2cnnn2)c1` the value was 17 µM (inactive).
For `COc1cc(C2c3cc4c(cc3C(OC3OC5COC(c6cccs6)OC5C(O)C3O)C3COC(=O)C23)OCO4)cc(OC)c1O` (stereo not drawn) the value was > 35.9 µM (inactive); for `Nc1ccn([C@@H]2O[C@H](CO)[C@@H](O)C2O)c(=O)n1` (stereo partly drawn), 16.2 µM (inactive); for `CCOC(=O)c1cccc2c1-c1ccccc1/C2=N/O`, 8.12 µM.
Under `CS(=O)(=O)Nc1cccc(NC(=O)C2Cc3c(-c4ccco4)ccnc3O2)c1` (stereo not drawn) stands 19.3 µM (inactive).
Regarding `Cc1nc(N2CCC(C(N)=O)CC2)c2c(-c3cccs3)csc2n1`, the IC50 is 11.6 µM (inactive).
For `CC(=O)C1=C(C)NC2=C(C(=O)CC(C)(C)C2)C1C` (stereo not drawn), the IC50 was 13.1 µM (inactive).
For `COc1cc([C@@H]2c3cc4c(cc3[C@@H](O[C@@H]3O[C@@H]5CO[C@@H](C)O[C@H]5[C@H](O)[C@H]3O)[C@H]3COC(=O)[C@H]23)OCO4)cc(OC)c1O` the value was > 35.9 µM (inactive); for `COc1cccc(C2=CC(=O)CC(C)(C)C2)c1`, 24 µM (inactive); for `CC1(C)Cc2c(ccc3ccccc23)C(=O)N1`, 8.4 µM.
Under `Nc1nc(CCl)nc(Nc2cccc3ccccc23)n1` stands 11.1 µM (inactive); under `CCCCC(CC)COCCCN=Cc1c(O)[nH]c(=S)[nH]c1=O` (stereo not drawn), 10.5 µM (inactive); under `N#Cc1c(-c2ccccc2)c(C#N)c2nc3ccccc3n2c1N`, > 35.9 µM (inactive).
For `CCOc1cccc(/C=N/NC(=O)c2cccnc2)c1O` the value was 8.44 µM; for `COc1ccccc1-c1cc2nc(-c3ccccc3)cc(N3CCN(C(=O)c4ccco4)CC3)n2n1`, 4.1 µM.
Consider `Cc1ccc(O)c(Nc2ncnc3ccc([N+](=O)[O-])cc23)c1`, for which the IC50 was 10.8 µM (inactive).
Consider `Cc1ccc(OCC(=O)c2cc(C)n(-c3ccccc3)c2C)c([N+](=O)[O-])n1`, for which the IC50 was 12.2 µM (inactive).
For `COc1ccc(NC(=O)CN(C)C(=O)C2(c3ccccc3)CCCC2)cc1` the value was 36.3 µM (inactive); for `Cc1ccc(C(=O)Nc2sc(C)c(-c3ccccc3)c2C(N)=O)cc1[N+](=O)[O-]`, > 35.9 µM (inactive).
For `S=C(c1ccc(-c2ccccc2)cc1)N1CCOCC1` the value was 24 µM (inactive); for `CC(C)Cn1c(N)c(C(=O)COC(=O)c2cc3ccccc3cc2O)c(=O)n(C)c1=O`, 29.3 µM (inactive); for `Cc1nn(CC(=O)N2CCN(c3cccc(C(F)(F)F)c3)CC2)c(=O)c2cccn12`, 17.6 µM (inactive).
In the case of `O=C1c2cccc(OCc3ccc(F)cc3)c2CCN1Cc1ccccc1`, the IC50 is 10.7 µM (inactive).
Turning to `Cc1c(C(=O)N/N=C/C(C)C)[nH]c2ccc([N+](=O)[O-])cc12`, the IC50 is 21.3 µM (inactive).
Under `COc1ccc2c(=O)cc(-c3ccncc3)oc2c1OC` stands > 12 µM (inactive); under `CCCc1cc(C(=O)N(C)CC(=O)Nc2ccc(OCC)c(OCC)c2)sc1C`, > 35.9 µM (inactive); under `CCOC(=O)c1c(NC(=O)C(C)N2CCN(C(=O)c3ccco3)CC2)sc2c1CCCC2` (stereo not drawn), 11.4 µM (inactive).
Under `Cc1cccc(C)c1-c1ccc(CN2C(CC(C)C)C(=O)N(Cc3cn(CC4CCCCC4)nn3)CCS2(=O)=O)cc1` (stereo not drawn) stands 16.6 µM (inactive); under `Cc1cc(=O)[nH]c(Nc2cccc(Br)c2)n1`, 9.71 µM; under `CN(c1ccc(C(=O)N2CCN(Cc3ccc4c(c3)OCO4)CC2)cc1)S(=O)(=O)c1ccccc1`, 13.5 µM (inactive).
For `COc1ccc(-n2cnc(N)c2C(=O)c2cccc([N+](=O)[O-])c2)cc1` the value was 15.7 µM (inactive); for `CCc1ccc(-c2nc(CSCC(=O)NCc3ccco3)c(C)o2)cc1`, 21.8 µM (inactive); for `c1cc2[nH]snc2c2nc(C3CC3)nc12`, 3.5 µM.
For `O=C(CCl)NC(Cc1ccccc1)c1ccccc1` (stereo not drawn), the IC50 is 20.8 µM (inactive).
Under `C=CCNc1ncnc2ccc(Br)cc12` stands 5.96 µM; under `CN(C)c1ccc(/C=C/c2nc3ccccc3s2)cc1`, 19.8 µM (inactive); under `O=C(O)c1ccccc1C(=O)Nc1ccc(Oc2cccc3ccccc23)cc1`, > 35.9 µM (inactive).
For `NS(=O)(=O)c1ccc(Nc2nc(-c3cccnc3)cs2)cc1` the value was > 35.8 µM (inactive); for `c1ccc(-c2csc3ncnc(NCCN4CCOCC4)c23)cc1`, 18.7 µM (inactive); for `CC(=O)c1cccc(NC(=O)COc2cc3oc(=O)c(CC(C)O)c(C)c3cc2Cl)c1` (stereo not drawn), > 35.9 µM (inactive).
With `Cc1ccc(NC(=O)NC2CC(=O)N(c3ccc4c(c3)OCCO4)C2)cc1C` (stereo not drawn), the IC50 was 20.6 µM (inactive).
Turning to `CC(C)(C)NC(=O)C1(C)CCC(=O)N1CCCn1ccnc1` (stereo not drawn), the IC50 is 12.5 µM (inactive).
Under `c1cnc2ccc(-n3ccnc3)cc2c1` stands 9.58 µM; under `CCOc1ccc(/C=C2\SC(=S)N(CCC(=O)O)C2=O)cc1`, > 35.9 µM (inactive); under `CCOC(=O)CC(=O)CSc1nccc(-c2cccnc2)n1`, > 35.9 µM (inactive).
With `CN(CC(=O)Nc1ccc(Cl)c(C(F)(F)F)c1)C(=O)C1CC(=O)N(c2ccc3c(c2)OCCO3)C1` (stereo not drawn), the IC50 was 25.1 µM (inactive).
Under `Cc1ccc2nc(C(F)(F)F)c(C#N)c(N)c2c1` stands 10.4 µM (inactive).
Turning to `Cc1ccc(OCC(=O)c2cc(C)n(Cc3cccs3)c2C)c([N+](=O)[O-])n1`, the IC50 is 12.1 µM (inactive).
For `COC(=O)N(NC(=O)C(O)(CCC(C)C)CCC(C)C)c1ccccc1` the value was > 35.9 µM (inactive); for `O=C1CCC2S/C(=C/Nc3ccc(C(F)(F)F)cc3)C(=O)N12` (stereo not drawn), > 35.9 µM (inactive).
For the compound `OCCN1CCN(C(=S)c2ccc(-c3ccccc3)cc2)CC1`, the IC50 is 30.7 µM (inactive).
`CCCS(=O)(=O)Nc1ccc(Nc2c3ccccc3nc3ccccc23)c(OC)c1`: the IC50 was > 35.9 µM (inactive).
Under `CC1CC(C)C(=NNC(N)=O)C(C(O)CC2CCC(=O)NC2=O)C1` (stereo not drawn) stands 12.2 µM (inactive).
For `CC(=O)c1cc2c(C)cc(=O)oc2cc1O` the value was 29 µM (inactive); for `O=C(CCC(=O)Nc1ccc(Br)cc1)N/N=C/c1ccccc1O`, 4.9 µM.
For the compound `Cc1cc(/C=C2\Cc3ccccc3C2=O)c(C)n1-c1ccccc1`, the IC50 is > 35.9 µM (inactive).
As for `COc1ccc2c(c1)-c1c(ssc1=S)C(C)(C)N2C(=O)CSC1=NCCS1`, the IC50 was 20.6 µM (inactive).
For `CCN1CCN(C(=S)c2ccc(-c3ccccc3)cc2)CC1` the value was 29.5 µM (inactive); for `Nc1ncccc1C(=O)OCC(=O)N1CCN(S(=O)(=O)c2ccc(Cl)cc2)CC1`, 12.8 µM (inactive).
For `O=C(OC(c1ccccc1)c1nccc2ccccc12)c1ccccc1` (stereo not drawn) the value was 23.9 µM (inactive); for `CC(=O)/C(N=Nc1ccc2c(c1)OCCO2)=C(\C)O`, > 35.9 µM (inactive).
